Test results as given in patent US20030211183A1, “Skin-improving agent” (Kyowa Hakko Kogyo Co., Ltd., priority 1999, published 2003).

System: Human neonate-derived fibroblasts
Test: Collagen synthesis-promoting activity on human fibroblasts (3H-glycine incorporation)
Format: cell-based
Settings: 300 μmol/l
Protocol: 201-271, Kodansha Scientific (1986).
Human neonate-derived fibroblasts (Sanko Junyaku Co., Ltd.) were suspended in DMEM containing 10% fetal bovine serum [Virology, 8, 396 (1959)] and cultured at 37° C. in 5% CO2 to the stationary phase. To the resulting culture were added ^3H-labeled glycine and a test substance, followed by further culturing for 72 hours. After 500 μmol/l phenylmethanesulfonyl fluoride (PMSF) was added to the obtained culture, the cells and the medium were collected, followed by disruption with a sonicator to extract proteins. To the extract were added 100 μmol/l bovine serum albumin (BSA) and 10% trichloroacetic acid (TCA), and the resulting mixture was centrifuged at 3000 rpm for 5 minutes to collect the precipitate. […]
After the reaction mixture was separated by ultrafiltration (molecular weight: 10,000), the radioactivity of the protein fraction in the filtrate (CDP) was measured as the amount of newly synthesized collagen. Then, the radioactivity of the protein fraction which was not filtered (NCDP) was measured, and the collagen synthesis ratio was calculated according to equation 2. The relative collagen synthesis-promoting activity (the change in collagen synthesis) was calculated according to equation 3 as the relative value of the collagen synthesis ratio in the presence of a test substance based on the control. […]

## Oc1cc(O)c2c(c1)O[C@H](c1ccc(O)c(O)c1)[C@H](O)[C@H]2c1c(O)cc(O)c2c1O[C@H](c1ccc(O)c(O)c1)[C@H](O)C2 [PB2, procyanidin B-2 [epicatechin-(4β→8)-epicatechin]]
  Amount of collagen synthesized compared with control (in words): increased
